These results are taken from patent publication US10758534B2 (Vertex Pharmaceuticals Incorporated, priority 2014, dated 2020).

Each structure is given as a SMILES string.

The target of assay [1] is T1, F508del (Homo sapiens, UniProt P13569, DEL508-508).
T1 construct: expressed in transfected cells
The assay is described as follows: Protocol 1: membrane potential optical assay (FLIPR III, voltage sensing dye), identification of potentiator compounds. It counts as cell-based. The settings on record: Table 3, compounds of Table 1. From the text: Membrane Potential Optical Methods for Assaying F508del Modulation Properties of Compounds
The assay utilizes fluorescent voltage sensing dyes to measure changes in membrane potential using a fluorescent plate reader (e.g., FLIPR III, Molecular Devices, Inc.) as a readout for increase in functional F508del in NIH 3T3 cells. The driving force for the response is the creation of a chloride ion gradient in conjunction with channel activation by a single liquid addition step after the cells have previously been treated with compounds and subsequently loaded with a voltage sensing dye.
Identification of Potentiator Compounds
To identify potentiators of F508del, a double-addition HTS assay format was developed. This HTS assay utilizes fluorescent voltage sensing dyes to measure changes in membrane potential on the FLIPR III as a measurement for increase in gating (conductance) of F508del in temperature-corrected F508del NIH 3T3 cells. The driving force for the response is a Cl^− ion gradient in conjunction with channel activation with forskolin in a single liquid addition step using a fluorescent plate reader such as FLIPR III after the cells have previously been treated with potentiator compounds (or DMSO vehicle control) and subsequently loaded with a redistribution dye.
Bath Solution #1: (in mM) NaCl 160, KCl 4.5, CaCl2 2, MgCl2 1, HEPES 10, pH 7.4 with NaOH.
Chloride-free bath solution: Chloride salts in Bath Solution #1 (above) are substituted with gluconate salts.
NIH3T3 mouse fibroblasts stably expressing F508del are used for optical measurements of membrane potential. The cells are maintained at 37° C. in 5% CO2 and 90% humidity in Dulbecco's modified Eagle's medium supplemented with 2 mM glutamine, 10% fetal bovine serum, 1×NEAA, β-ME, 1× pen/strep, and 25 mM HEPES in 175 cm^2 culture flasks. For all optical assays, the cells were seeded at ˜20,000/well in 384-well matrigel-coated plates and cultured for 2 hrs at 37° C. before culturing at 27° C. for 24 hrs. for the potentiator assay. For the correction assays, the cells are cultured at 27° C. or 37° C. with and without compounds for 16-24 hours.

The target of assay [2] is T1, F508del. The assay is described as follows: Protocol 2: FRET membrane potential optical assay (VIPR), identification of correction compounds. The assay is classed as cell-based. The gist of the method: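 Mouse NIH3T3 cells, stable F508del; cpd 16 hrs, 37° C., serum-free; pos ctrl 27° C. 16 hrs. Rinse in Krebs Ringers, dye load, then add 10 μM forskolin + 20 μM genistein with Cl^−-free (gluconate) medium; depolarization by FRET voltage dyes.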

[3] abbreviates: F508del CFTR modulator activity, compounds of Table 1, read-out: EC30.
Where [4] appears, read: Table 3, compounds of Table 1 as modulators of CFTR activity, protocol not stated.

T1 sequence (P13569 with tags, fused parts or gaps DEL508-508): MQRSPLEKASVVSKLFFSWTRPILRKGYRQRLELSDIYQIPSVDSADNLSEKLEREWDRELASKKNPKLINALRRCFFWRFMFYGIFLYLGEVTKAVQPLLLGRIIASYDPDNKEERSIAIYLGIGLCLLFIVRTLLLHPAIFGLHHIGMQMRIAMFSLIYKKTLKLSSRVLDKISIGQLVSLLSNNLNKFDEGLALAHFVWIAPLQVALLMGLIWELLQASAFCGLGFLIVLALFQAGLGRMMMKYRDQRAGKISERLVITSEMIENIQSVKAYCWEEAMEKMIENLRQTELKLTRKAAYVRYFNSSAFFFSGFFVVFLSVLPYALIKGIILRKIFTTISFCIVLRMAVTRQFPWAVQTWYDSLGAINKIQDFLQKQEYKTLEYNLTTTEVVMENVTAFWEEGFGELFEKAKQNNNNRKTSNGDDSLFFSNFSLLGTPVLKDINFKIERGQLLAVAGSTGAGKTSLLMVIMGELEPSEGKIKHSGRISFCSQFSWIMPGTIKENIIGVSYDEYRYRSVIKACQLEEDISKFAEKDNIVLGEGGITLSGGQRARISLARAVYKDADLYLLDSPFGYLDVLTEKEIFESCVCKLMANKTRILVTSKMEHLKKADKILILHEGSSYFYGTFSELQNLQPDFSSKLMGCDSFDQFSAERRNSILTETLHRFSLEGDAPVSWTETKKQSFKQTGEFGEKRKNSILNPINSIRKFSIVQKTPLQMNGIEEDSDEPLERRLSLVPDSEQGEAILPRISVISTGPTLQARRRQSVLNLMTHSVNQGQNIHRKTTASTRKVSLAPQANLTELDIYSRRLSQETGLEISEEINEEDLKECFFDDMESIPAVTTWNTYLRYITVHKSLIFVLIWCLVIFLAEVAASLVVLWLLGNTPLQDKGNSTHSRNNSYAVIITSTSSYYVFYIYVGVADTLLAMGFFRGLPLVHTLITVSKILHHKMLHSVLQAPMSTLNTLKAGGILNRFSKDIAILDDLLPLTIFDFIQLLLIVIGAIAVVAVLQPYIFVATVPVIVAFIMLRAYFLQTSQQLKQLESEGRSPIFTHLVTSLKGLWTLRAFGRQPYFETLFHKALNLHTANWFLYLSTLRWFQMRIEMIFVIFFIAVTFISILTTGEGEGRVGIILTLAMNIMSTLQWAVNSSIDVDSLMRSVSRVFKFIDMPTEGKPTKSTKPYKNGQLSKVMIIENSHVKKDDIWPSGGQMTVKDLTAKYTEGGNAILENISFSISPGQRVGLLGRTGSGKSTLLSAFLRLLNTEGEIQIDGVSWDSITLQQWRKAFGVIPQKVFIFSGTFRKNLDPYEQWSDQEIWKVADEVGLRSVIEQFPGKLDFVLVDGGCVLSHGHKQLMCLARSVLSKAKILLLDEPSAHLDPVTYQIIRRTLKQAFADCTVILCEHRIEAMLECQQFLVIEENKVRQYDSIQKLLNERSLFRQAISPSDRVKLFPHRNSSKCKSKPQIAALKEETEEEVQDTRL

Turning to `CC1CN(c2nc(-c3ccc(OCC(C)(C)C)nc3)ccc2C(=O)NS(=O)(=O)c2cccc(N)n2)C(C)(C)C1` (stereo not drawn) [Compound 1181, N-[(6-amino-2-pyridyl)sulfonyl]-6-[6-(2,2-dimethylpropoxy)-3-pyridyl]-2-(2,2,4-trimethylpyrrolidin-1-yl)pyridine-3-carboxamide], in assay [1], the EC30 (in general, the point of the concentration-response curve where the effect stands at 30%) was “+++ (“+++” means <3 uM)”. As for `C[C@@H]1CN(c2nc(C3CC4CCC3C4)ccc2C(=O)NS(=O)(=O)c2cccc(N)n2)C(C)(C)C1` (stereo partly drawn) [Compound 1378, NV [(6-amino-2-pyridyl)sulfonyl]-6-norbornan-2-yl-2-[(4S)-2,2,4-trimethylpyrrolidin-1-yl]pyridine-3-carboxamide], in assay [1], the EC30 entry was “+++ (“+++” means <3 uM)”. Turning to `COc1ccc(-c2ccc(C(=O)NS(=O)(=O)c3cccc(N)n3)c(Oc3c(C)cc(C)cc3C)n2)cc1OC` [Compound 1146, N-[(6-amino-2-pyridyl)sulfonyl]-6-(3,4-dimethoxyphenyl)-2-(2,4,6-trimethylphenoxy)pyridine-3-carboxamide], the EC30 entry in assay [1] was “++ (“++” means between 3 uM and 10 uM)”.

Take `CC(C)COc1cc(F)cc(-c2ccc(C(=O)NS(=O)(=O)c3cccc(N)n3)c(N3CC(C)CC(C)C3)n2)c1` (stereo not drawn) [Compound 1013, N-[(6-amino-2-pyridyl)sulfonyl]-2-(3,5-dimethyl-1-piperidyl)-6-(3-fluoro-5-isobutoxy-phenyl)pyridine-3-carboxamide]: the EC30 entry in assay [1] was “+++ (“+++” means <3 uM)”.

For `COc1cc(F)c(-c2ccc(C(=O)NS(=O)(=O)c3cccc(N)n3)c(Oc3c(C)cc(C)cc3C)n2)cc1F` [Compound 984, N-[(6-amino-2-pyridyl)sulfonyl]-6-(2,5-difluoro-4-methoxy-phenyl)-2-(2,4,6-trimethylphenoxy)pyridine-3-carboxamide], in assay [1], the EC30 entry is “+++ (“+++” means <3 uM)”. Regarding `CC(C)COc1cc(F)cc(-c2ccc(C(=O)NS(=O)(=O)N3CCC[C@@H](N)C3)c(N3C[C@@H](C)CC3(C)C)n2)c1` [Compound 1614, N—[[(3R)-3-amino-1-piperidyl]sulfonyl]-6-(3-fluoro-5-isobutoxy-phenyl)-2-[(4S)-2,2,4-trimethylpyrrolidin-1-yl]pyridine-3-carboxamide], the EC30 result in assay [1] was “+++ (“+++” means <3 uM)”. Regarding `Cc1cc(C)c(Oc2nc(-c3cc(F)cc(OC(C)C)c3)ccc2C(=O)NS(=O)(=O)c2cc[nH]n2)c(C)c1` [Compound 914, 6-(3-fluoro-5-isopropoxy-phenyl)-N-(1H-pyrazol-3-ylsulfonyl)-2-(2,4,6-trimethylphenoxy)pyridine-3-carboxamide], the EC30 result in assay [1] was “+++ (“+++” means <3 uM)”. On the same count and under the same terms, next, `COc1cc(C(C)=O)ccc1Oc1cccc(S(=O)(=O)NC(=O)c2cccnc2N2CC(C)CC2(C)C)n1` (stereo not drawn) [Compound 1744, N—[[6-(4-acetyl-2-methoxy-phenoxy)-2-pyridyl]sulfonyl]-2-(2,2,4-trimethylpyrrolidin-1-yl)pyridine-3-carboxamide]: “++ (“++” means between 3 uM and 10 uM)”; `CC(C)COc1ccn(-c2ccc(C(=O)NS(=O)(=O)c3cccc(N)n3)c(N3C[C@@H](C)CC3(C)C)n2)n1` [Compound 1620, N-[(6-amino-2-pyridyl)sulfonyl]-6-(3-isobutoxypyrazol-1-yl)-2-[(4S)-2,2,4-trimethylpyrrolidin-1-yl]pyridine-3-carboxamide]: “+++ (“+++” means <3 uM)”; `CC(C)COc1cc(F)cc(-c2ccc(C(=O)NS(=O)(=O)c3cccc(N)n3)c(N3CCCC(C(C)C)C3)n2)c1` (stereo not drawn) [Compound 1098, N-[(6-amino-2-pyridyl)sulfonyl]-6-(3-fluoro-5-isobutoxy-phenyl)-2-(3-isopropyl-1-piperidyl)pyridine-3-carboxamide]: “+++ (“+++” means <3 uM)”.

Take `Cc1cc(F)ccc1-c1ccc(C(=O)NS(=O)(=O)c2cccc(N)n2)c(N2CC(C)CC2(C)C)n1` (stereo not drawn) [Compound 822, N-[(6-amino-2-pyridyl)sulfonyl]-6-(4-fluoro-2-methyl-phenyl)-2-(2,2,4-trimethylpyrrolidin-1-yl)pyridine-3-carboxamide]: the EC30 result in assay [1] is “+++ (“+++” means <3 uM)”. The same measure, in the same setting: with `Cc1cc(C)c(CN2Cc3ccccc3CCC2C(=O)NS(=O)(=O)c2ccc[nH]c2=O)c(C)c1` (stereo not drawn) [Compound 855, N-[(2-oxo-1H-pyridin-3-yl)sulfonyl]-2-[(2,4,6-trimethylphenyl)methyl]-1,3,4,5-tetrahydro-2-benzazepine-3-carboxamide] the entry was “+ (“+” means greater than 10 uM)”; with `COc1cccc(COc2cccc(S(=O)(=O)NC(=O)c3cccnc3N3CC(C)CC3(C)C)n2)c1` (stereo not drawn) [Compound 1972, N—[[6-[(3-methoxyphenyl)methoxy]-2-pyridyl]sulfonyl]-2-(2,2,4-trimethylpyrrolidin-1-yl)pyridine-3-carboxamide], “+++ (“+++” means <3 uM)”; with `Cc1cc(C)c(Oc2nc(-c3cc(F)cc(F)c3)ccc2C(=O)NS(=O)(=O)c2ccc[nH]c2=O)c(C)c1` [Compound 815, 6-(3,5-difluorophenyl)-N-[(2-oxo-1H-pyridin-3-yl)sulfonyl]-2-(2,4,6-trimethylphenoxy)pyridine-3-carboxamide], “++ (“++” means between 3 uM and 10 uM)”. On the same count and under the same terms, with `C=C(C)c1ccc(C(=O)NS(=O)(=O)c2cccc(N)n2)c(Oc2c(C)cc(C)cc2C)n1` [Compound 1211, N-[(6-amino-2-pyridyl)sulfonyl]-6-isopropenyl-2-(2,4,6-trimethylphenoxy)pyridine-3-carboxamide] the entry was “++ (“++” means between 3 uM and 10 uM)”; with `CC1CN(c2ncc(/C=C/C3CC3)cc2C(=O)NS(=O)(=O)c2cccc(N)n2)C(C)(C)C1` (stereo not drawn) [Compound 1571, N-[(6-amino-2-pyridyl)sulfonyl]-5-[(E)-2-cyclopropylvinyl]-2-(2,2,4-trimethylpyrrolidin-1-yl)pyridine-3-carboxamide], “+++ (“+++” means <3 uM)”.

With `CCOc1cccc2c1CN(Cc1c(C)cc(C)cc1C)C2(C)C(=O)NS(=O)(=O)c1ccc(CC)c(N)c1` (stereo not drawn) [Compound 1584, N-(3-amino-4-ethyl-phenyl)sulfonyl-4-ethoxy-1-methyl-2-[(2,4,6-trimethylphenyl)methyl]isoindoline-1-carboxamide], the EC30 result in assay [1] was “+++ (“+++” means <3 uM)”.

As to `CC1CN(c2ncccc2C(=O)NS(=O)(=O)c2cccc(OCCC(C)(C)C)n2)C(C)(C)C1` (stereo not drawn) [Compound 2025, N—[[6-(3,3-dimethylbutoxy)-2-pyridyl]sulfonyl]-2-(2,2,4-trimethylpyrrolidin-1-yl)pyridine-3-carboxamide], the EC30 in assay [2] (setting [3]) is less than 3000 nM. Turning to `CC(C)COc1cc(F)cc(-c2ccc(C(=O)NS(=O)(=O)c3cccc(N)n3)c(Oc3ccccc3)n2)c1` [Compound 376, N-[(6-amino-2-pyridyl)sulfonyl]-6-(3-fluoro-5-isobutoxy-phenyl)-2-phenoxy-pyridine-3-carboxamide], the EC30 result in assay [2] (setting [4]) is on record as “+++ (“+++” means <3 uM)”. `CC1CN(c2ncccc2C(=O)NS(=O)(=O)c2cccc(Oc3ccc(Cl)c(Cl)c3)n2)C(C)(C)C1` (stereo not drawn) [Compound 2061, N—[[6-(3,4-dichlorophenoxy)-2-pyridyl]sulfonyl]-2-(2,2,4-trimethylpyrrolidin-1-yl)pyridine-3-carboxamide]: the EC30 in assay [2] (setting [3]) is less than 3000 nM. `Cc1ccc(-c2nc(C(C)(C)C)ccc2C(=O)NS(=O)(=O)c2ccc(C#N)cc2)cc1` [Compound 288, 6-tert-butyl-N-(4-cyanophenyl)sulfonyl-2-(p-tolyl)pyridine-3-carboxamide]: in assay [2] (setting [4]), the EC30 entry is “+++ (“+++” means <3 uM)”. Same read-out and setting: next, `CC(C)COc1cc(F)cc(-c2ccc(C(=O)NS(=O)(=O)c3ccn[nH]3)c(N3CCCCC3)n2)c1` [Compound 355, 6-(3-fluoro-5-isobutoxy-phenyl)-2-(1-piperidyl)-N-(1H-pyrazol-5-ylsulfonyl)pyridine-3-carboxamide]: “+++ (“+++” means <3 uM)”. Same read-out and setting: next, `Cc1ccc(C(=O)NS(=O)(=O)c2cccc(N)n2)c(N2CCC[C@@H](c3ccccc3)C2)n1` [Compound 532, N-[(6-amino-2-pyridyl)sulfonyl]-6-methyl-2-[(3S)-3-phenyl-1-piperidyl]pyridine-3-carboxamide]: “++ (“++” means between 3 uM and 10 uM)”; `COC(=O)C(C(=O)c1cc(C(C)(C)C)nn1Cc1c(C)cccc1C)S(=O)(=O)c1ccccc1` (stereo not drawn) [Compound 4, Methyl 2-(benzenesulfonyl)-3-[5-tert-butyl-2-[(2,6-dimethylphenyl)methyl]pyrazol-3-yl]-3-oxo-propanoate]: “+ (“+” means greater than 10 uM)”.
